Measurements from PubChem BioAssay (NCI).
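Values below derive from 48-hour exposures of cells grown in 96-well plates, with endpoints linearly interpolated between the two concentrations bracketing the appropriate inhibition level. Abbreviation: GI50, concentration required for 50% inhibition of growth. The concentration for full growth arrest is given as TGI.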

Legend:
Assay in all cases: NCI anticancer screen, dose series, 48 h
EKVX NSCLC = tested on: EKVX NSCLC
HCT-15 colon = tested on: HCT-15 colon
UACC-257 melanoma = tested on: UACC-257 melanoma
OVCAR-4 ovarian = tested on: OVCAR-4 ovarian
M14 melanoma = tested on: M14 melanoma
UO-31 renal = tested on: UO-31 renal
OVCAR-5 ovarian = tested on: OVCAR-5 ovarian
HOP-92 NSCLC = tested on: HOP-92 NSCLC
PC-3 prostate = tested on: PC-3 prostate
DU-145 prostate = tested on: DU-145 prostate

| SMILES | TGI (EKVX NSCLC) [µM] | TGI (HCT-15 colon) [µM] | TGI (UACC-257 melanoma) [µM] | TGI (OVCAR-4 ovarian) [µM] | TGI (M14 melanoma) [µM] | TGI (UO-31 renal) [µM] | TGI (OVCAR-5 ovarian) [µM] | TGI (HOP-92 NSCLC) [µM] | TGI (PC-3 prostate) [µM] | TGI (DU-145 prostate) [µM] | GI50 (PC-3 prostate) [µM] | GI50 (M14 melanoma) [µM] | GI50 (DU-145 prostate) [µM] | GI50 (UO-31 renal) [µM] | GI50 (OVCAR-5 ovarian) [µM] | GI50 (EKVX NSCLC) [µM] | GI50 (HCT-15 colon) [µM] | GI50 (UACC-257 melanoma) [µM] | GI50 (OVCAR-4 ovarian) [µM] | GI50 (HOP-92 NSCLC) [µM] |
| --- | --- | --- | --- | --- | --- | --- | --- | --- | --- | --- | --- | --- | --- | --- | --- | --- | --- | --- | --- | --- |
| CC(Nc1ccc(S(=O)(=O)N=C(N)N)cc1)c1c2ccccc2nc2ccccc12 (stereo not drawn) | > 100 | > 100 | 97.6 | 31.3 | > 100 | 65.6 | > 100 | 55.5 | – | – | – | – | – | – | – | – | – | – | – | – |
| COc1ccc2ccccc2c1C1NC(=O)c2ccccc2N1 (stereo not drawn) | > 100 | 6.21 | > 100 | – | 10.2 | 71.2 | > 31.3 | > 80.6 | 3.19 | > 25.2 | – | – | – | – | – | – | – | – | – | – |
| O=C(Nc1ccc(Cl)c(Cl)c1)Nc1c(Oc2ccc(Cl)c(Cl)c2)ccc(Cl)c1S(=O)(=O)O | – | – | – | – | > 100 | > 100 | > 100 | – | > 100 | > 100 | 3.59 | 1.09 | 3.22 | 3.13 | 4.09 | – | – | – | – | – |
| O=c1ncc(F)cn1C1OC(CO)C(O)C1O (stereo not drawn) | > 100 | > 100 | > 55.3 | > 100 | > 100 | > 100 | > 100 | > 100 | – | – | – | – | – | – | – | – | – | – | – | – |
| COC(=O)C(C(=O)OC)C1CCCC(=O)C1 (stereo not drawn) | > 100 | > 100 | > 100 | > 100 | > 100 | > 100 | > 100 | > 100 | – | – | – | – | – | – | – | – | – | – | – | – |
| COC(=O)C(C(=O)C(=O)Nc1ccc([N+](=O)[O-])cc1[N+](=O)[O-])c1nc2ccc(Cl)cc2[nH]c1=O (stereo not drawn) | > 100 | > 100 | > 100 | > 100 | > 100 | > 100 | > 100 | > 100 | – | – | – | – | – | – | – | – | – | – | – | – |
| C#Cc1c(/C=C/C(=O)OCC)ccc2ccccc12 | 84.3 | 97.3 | > 100 | 69.1 | 46 | 26.6 | > 100 | – | 63.6 | 75.6 | 18.3 | 18.9 | 28.9 | 12.7 | 28.9 | 28 | 9.99 | 27.4 | 20.7 | – |
| CS(=O)(=O)CCc1cccc(C(=O)c2cnn(-c3ccc(F)cc3)c2N)c1 | – | > 25 | > 25 | > 25 | > 25 | > 25 | > 25 | > 25 | > 25 | > 25 | > 25 | > 25 | > 25 | > 25 | > 25 | – | > 25 | > 25 | > 25 | > 25 |
| CN1C(=O)C2C3C=C4c5ccccc5N(c5ccccc5)C4(C2C1=O)[C@H]1C(=O)N(C)C(=O)[C@@H]31 (stereo partly drawn) | > 100 | – | > 100 | > 100 | > 100 | > 100 | > 100 | > 100 | – | – | – | – | – | – | – | – | – | – | – | – |
| Cc1csc(/C=C/C(=O)c2nnn(-c3ccnc4c(C(F)(F)F)cccc34)c2C)c1 | > 100 | > 100 | 60.9 | – | > 100 | > 100 | > 100 | > 100 | > 100 | > 100 | 29.7 | > 100 | > 100 | 94.4 | > 100 | 69.3 | 57.5 | 13.7 | – | 90.2 |
| CN(C)CCNC(=O)c1cccc(N(C)C(=O)c2ccccc2)c1[N+](=O)[O-] | – | > 100 | > 10 | – | > 100 | > 100 | > 100 | – | > 100 | > 100 | – | – | – | – | – | – | – | – | – | – |
| Cc1ccc(S(=O)(=O)NC2(C=O)CCCC3CCCCC32)cc1 (stereo not drawn) | – | > 100 | > 100 | > 100 | > 100 | > 100 | – | – | – | – | – | – | – | – | – | – | – | – | – | – |
| NC(=O)/N=C1/CCC2C3CCCC2C13 | > 100 | – | > 100 | > 100 | > 100 | > 100 | > 100 | > 100 | – | – | – | – | – | – | – | – | – | – | – | – |
| CCC[CH2][Sn]1([CH2]CCC)[O]CC(CN(C)Cc2ccccc2)[O]1 (stereo not drawn) | 27.3 | 20.3 | 20.2 | 23 | 7.76 | 24.7 | 25.3 | 19.7 | – | – | – | 2.45 | – | 12.2 | 12.7 | 10.7 | 8.29 | 7.85 | 10.7 | 3.94 |
| Cn1cnc([N+](=O)[O-])c1Sc1nccn1-c1cccc2ccccc12 | 92.4 | – | > 100 | 95.3 | 61 | > 100 | 76.1 | 54.9 | – | – | – | – | – | – | – | – | – | – | – | – |
| Cc1cccc(C(C)(C)C)c1NC(=O)CC1C(=O)Nc2ccccc2S1(=O)=O (stereo not drawn) | 14.5 | 16.3 | > 100 | 25.5 | 27.8 | 23.3 | 27 | 25.3 | – | – | – | – | – | – | – | – | – | – | – | – |
| Cn1c2c(c3ccc([N+](=O)[O-])cc3c1=O)C(=O)c1ccccc1-2 | > 100 | > 100 | > 100 | > 100 | – | > 100 | > 100 | > 100 | > 100 | > 100 | > 100 | – | > 100 | > 100 | > 100 | > 100 | > 100 | > 100 | > 100 | > 100 |
| O=Nc1ccc(NO)c2ccccc12 | – | 31.7 | 5.39 | 16.2 | 31.3 | 26.4 | 35.5 | – | 13.2 | 31.5 | 2.44 | 16.5 | 17.4 | 13.2 | 18.6 | – | 14.9 | 2.31 | 3.33 | – |
| Cc1cccc(C)c1NC(=O)C1C(=O)N(c2c(C)cccc2C)C(=O)/C1=N\N (stereo not drawn) | > 100 | > 100 | > 100 | > 100 | > 100 | > 100 | > 100 | > 100 | – | – | – | – | – | – | – | – | – | – | – | – |
| CC(=O)C1C(c2ccc(N(C)C)cc2)c2cc3c(cc2OC1(C)O)OCO3 (stereo not drawn) | > 100 | > 100 | > 100 | > 100 | > 100 | > 100 | – | 55.4 | – | – | – | – | – | – | – | – | – | – | – | – |
| Oc1ccc2ccccc2c1N=Nc1ccsc1 | – | > 100 | > 100 | > 100 | > 100 | > 100 | > 100 | > 100 | – | – | – | – | – | – | – | – | – | – | – | – |
